Assay results reported in patent US11590092B2, “Skin probiotic” (The Regents of the University of California, priority 2014, dated 2023).
Converted amounts (≈) assume the structure as drawn. “Also recorded” adds a separate entry of the source.

How the values were obtained:
[1] = system: USA300; test: Interference of P. acnes fermentation with the colonization of USA300 in skin wounds in vivo; parameters: species or system ICR mice; details: glycerol 0.2 mg alone, compared to PBS
Protocol: A 5 mm wound made on the dorsal skin of ICR mice were described above. P. acnes bacteria (10^7 CFU in 5 μl PBS), P. acnes bacteria and glycerol (0.2 mg), PBS (5 μl) alone or glycerol alone were applied onto the skin wounds for 3 days. USA300 (10^7 CFU in 5 μl PBS) was administered onto the same wounds. The wounds were excised, weighted and homogenized 3 days after USA300 administration. Bacterial CFUs in the wounds were enumerated by plating serial dilutions (1:10^1-1:10^6) of the homogenate on a TSB agar plate. The plate was incubated for 24 h at 37° C. to count colonies of USA300.

[2] = system: P. acnes; test: Growth curve of P. acnes in absence or presence of glycerol (OD600); type: cell-based, Propionibacterium acnes; details: rich medium with glycerol vs without, anaerobic, 30° C.
Protocol: P. acnes was incubated in rich medium in the absence (□) and presence (▪) of glycerol on a 96-well microplate under anaerobic conditions at 30° C. The OD600 was read at the indicated time points. Data are the mean±SD of three separate experiments.

[3] = system: USA300; test: Growth of USA300 with glycerol; type: cell-based, Staphylococcus aureus; details: glycerol itself
[4] = system: USA300; test: MBC assay against USA300; type: cell-based, Staphylococcus aureus
Protocol: To determine the MBC of propionic acid, USA300 (10^6 CFU/ml) were incubated with propionic acid at various concentrations (1.25-100 mM in PBS) as indicated in each individual experiment in media on a 96-well microplate (100 μl per well) overnight. The control received only PBS. After incubation, the bacteria were diluted 1:10-1:10^6 with PBS. […] To determine the pH effect on the bacterial growth, USA300 in TSB was incubated with 2.5 mM propionic acid on a 96-well microplate (100 μl per well) overnight before spotting on an agar plate.
To determine the minimal bactericidal concentration (MBC) and minimal fungicidal concentration (MFC) of propionic acid, microorganisms (10^6 colony forming units (cfu)/ml) were incubated overnight in media with propionic acid (1.25-2,000 mM) in a 96-well microplate (100 μl per well). The control only received PBS. After incubation, the microorganisms were diluted 1:10-1:10^6 into PBS. […]

[5] = system: P. acnes; test: MBC assays of SCFAs against P. acnes; type: cell-based, Propionibacterium acnes; details: for MBC: Cutibacterium acnes, P. acnes 10^8 CFU/ml, overnight, 99.9% killing level
Protocol: To determine the MBC values of SCFAs, P. acnes (10^8 CFU/ml) was incubated with SCFAs at various concentrations (2.5-100 mM in PBS) as indicated in each individual experiment in media on a 96-well microplate (100 μl per well) overnight. The control received only PBS. After incubation, the bacteria were diluted 1:10-1:10^6 with PBS. MBC was defined as a 99.9% killing level and determined by spotting the dilution (5 μl) on an agar plate supplemented with media for CFU counting. To determine the effect of pH on its growth, P. acnes in PBS was incubated with 5 mM succinic acid on a 96-well microplate (100 μl per well) overnight before spotting on an agar plate. As controls, P. acnes was incubated with PBS (pH 7.4) alone, PBS (pH 5.5; a pH value corresponding to the MBC of succinic acid in PBS), or buffered succinic acid (5 mM succinic acid, pH 7.4 buffered with ammonium hydroxide).
The minimal bactericidal concentration (MBC) assays were performed to determine if SCFAs exert the antimicrobial activities against P. acnes. Bacteria were incubated with acetic acid, butyric acid, lactic acid, and succinic acid various concentrations in media for 24 h. After incubation, the bacteria were diluted with PBS and spotted on an agar plate to count CFUs. […] To assess the acidity (pH 5.5) of 5 mM succinic acid in affecting growth of P. acnes, bacteria were incubated with PBS (pH 5.5) or ammonium hydroxide-buffered succinic acid (pH 7.4).

[6] = system: P. acnes; details: 5 mM, 5 min after treatment, vs PBS
Protocol: To eliminate unbound probe, bacteria were incubated with glucose (10 mM) for an additional 30 min, washed twice in 50 mM PBS with 10 mM MgCl2, pH 7.0, and then re-suspended in 1 mM PBS. […] Fluorescence intensities were measured immediately and every min for 5 min using an excitation wavelength of 490 nm and emission wavelength of 520 nm. A drop in relative fluorescence indicates the decrease in intracellular pH. Fluorescence of the bacteria-free filtrate (background fluorescence) was measured after the 5-min assay. The treated suspensions were centrifuged at 5,000 g for 5 min, the fluorescence of the bacteria-free supernatant was measured. Calibration curves were obtained by incubation of un-treated, cFSE-loaded bacteria in buffers of various pHs. The buffer containing glycine (50 mM), citric acid (50 mM), Na2HPO4.2H2O (50 mM), and KCl (50 mM) was adjusted to various pH values ranging from 4 to 10. Equilibration of the intracellular and extracellular pH was conducted by addition of 1 μM valinomycin and nigericin (Sigma, St. Louis, Mo.).
P. acnes was loaded with an internally conjugated fluorescent pH probe, carboxyfluorescein succinimidyl ester (cFSE).

[7] = system: P. acnes
[8] = topical application, 100 mM once per day, vs PBS

`OCC(O)CO` [glycerol] was tested, and the USA300 colonization [1] was “did not significantly alter”, the “size of USA300-infected lesions” value [1] was “did not significantly alter” and the “growth of P. acnes” value [2] was “did not influence; also recorded: did not change significantly”. For the same compound, the “growth of USA300” value [3] was “did not influence”.

In the case of `CCC(=O)OCCOCCOC(=O)CC` [PA-DEG-PA, propionic acid 2-(2-propionyloxyethoxy)ethyl ester], the “efficacy to suppress the growth of USA300 in vitro compared with propionic acid” value ([4]; 4% dimethyl sufoxide) is reported as “equivalent in efficacy”, the “concentration for complete growth inhibition of USA300” value ([4]; dissolved in 4% dimethyl sufoxide, overnight) is reported as 100 mM and the “MBC (>1 log10 inhibition) against USA300” value ([4]; dissolved in 4% dimethyl sufoxide, overnight, 0-100 mM) is reported as no less than 25 mM.

In the case of `CCCC(=O)O` [butyric acid], the MBC [5] is reported as 10 mM (≈ 881 µg/mL).

Compound `CC(O)C(=O)O` (stereo not drawn) [lactic acid] has an MBC [5] of 10 mM (≈ 901 µg/mL).

`CC(=O)O` [acetic acid] was tested, and the MBC [5] was 7.5 mM (≈ 450 µg/mL).

In the case of `O=C(O)CCC(=O)O` [succinic acid], the “antimicrobial activity against P. acnes after buffering” value ([5]; 5 mM succinic acid buffered with ammonium hydroxide, pH 7.4) is reported as “persisted”, the MBC [5] is reported as 5 mM (≈ 590 µg/mL) and the “concentration that completely killed P. acnes” value ([5]; MBC assay) is reported as no less than 210 mM. The “concentration that effectively suppressed the growth of P. acnes” value ([5]; MBC assay) was no less than 25 mM, the “intracellular pH of P. acnes” value [6] was “significantly lowered” and the P. acnes-induced inflammation ([7]; application of succinic acid (FIG. 5)) was “significantly neutralizes”. For the same compound, the “P. acnes numbers in ears” value ([7]; intralesional injection, 5 mM) was 2.9×10^4±1.3×10^4 CFU, the “MIP-2 production less than in PBS-injected ear” value ([7]; intralesional injection, 5 mM, two days after injection, ELISA) was “approximately 50%” and the P. acnes-induced redness ([7]; intralesional injection, 5 mM, vs PBS) was “reduced”. For the same compound, the MIP-2 production [7, 8] was “considerably lowered” and the P. acnes colonization [7, 8] was “considerably lowered”.
